According to ChEMBL document CHEMBL5038668 (J Med Chem, 2022):

What was measured:
[1] = target: Cholesterol 24-hydroxylase (Homo sapiens, UniProt Q9Y6A2); assay: biochemical
Description: Inhibition of CH24H expressing human 293-F cells for 15 minutes using [14C] cholesterol as substrate and measured after 5 hrs by trypan blue staining based thin-layer chromatography

[2] = Lipophilicity, log D of compound at pH 7.4; details: buffer
CYP3A4 = CYP3A4 (Homo sapiens, UniProt P08684); assay: Inhibition of human CYP3A4 at 10 uM incubated for 60 mins by LC/MS/MS analysis relative to control; type: ADME
[3] = Drug concentration in brain of C57BL/6N mouse at 30 mg/kg,po and measured at 1 hrs by LC/MS/MS analysis; type: ADME, organism-based; details: read-out: Ct
CYP2C9 = CYP2C9 (Homo sapiens, UniProt P11712); assay: Inhibition of human CYP2C9 at 10 uM incubated for 60 mins by LC/MS/MS analysis relative to control; type: ADME
[4] = Plasma concentration in C57BL/6N mouse at 30 mg/kg, po and measured at 1 hr by LC/MS/MS analysis; type: ADME, organism-based
Brain = assay: In vivo inhibition of […] CH24H in C57BL/6N mouse brain assessed as reduction in 24HC level at 30 mg/kg, po for 3 days by HPLC analysis; type: functional; details: 72 h, time 3 day
CYP2D6 = CYP2D6 (Homo sapiens, UniProt P10635); assay: Inhibition of human CYP2D6 at 10 uM incubated for 60 mins by LC/MS/MS analysis relative to control; type: ADME
CYP2C8 = target: T1, CYP2C8 (Homo sapiens, UniProt P10632); assay: Inhibition of human CYP2C8 at 10 uM incubated for 60 mins by LC/MS/MS analysis relative to control; type: ADME
T1 sequence (P10632 whole entry): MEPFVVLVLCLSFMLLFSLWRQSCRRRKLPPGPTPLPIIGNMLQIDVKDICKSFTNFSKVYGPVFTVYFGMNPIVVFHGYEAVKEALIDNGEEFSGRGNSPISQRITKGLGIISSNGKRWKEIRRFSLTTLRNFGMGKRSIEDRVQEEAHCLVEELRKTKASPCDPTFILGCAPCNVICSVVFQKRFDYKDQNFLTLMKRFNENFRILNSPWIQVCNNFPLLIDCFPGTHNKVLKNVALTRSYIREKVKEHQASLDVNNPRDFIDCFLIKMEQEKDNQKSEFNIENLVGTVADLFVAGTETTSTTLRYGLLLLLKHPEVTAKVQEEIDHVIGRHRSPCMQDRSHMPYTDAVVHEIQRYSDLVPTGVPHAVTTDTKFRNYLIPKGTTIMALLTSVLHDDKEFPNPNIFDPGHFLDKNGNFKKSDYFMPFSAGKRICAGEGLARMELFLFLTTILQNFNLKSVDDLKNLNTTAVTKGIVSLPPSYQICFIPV

Sequence of Cholesterol 24-hydroxylase (Q9Y6A2 whole entry): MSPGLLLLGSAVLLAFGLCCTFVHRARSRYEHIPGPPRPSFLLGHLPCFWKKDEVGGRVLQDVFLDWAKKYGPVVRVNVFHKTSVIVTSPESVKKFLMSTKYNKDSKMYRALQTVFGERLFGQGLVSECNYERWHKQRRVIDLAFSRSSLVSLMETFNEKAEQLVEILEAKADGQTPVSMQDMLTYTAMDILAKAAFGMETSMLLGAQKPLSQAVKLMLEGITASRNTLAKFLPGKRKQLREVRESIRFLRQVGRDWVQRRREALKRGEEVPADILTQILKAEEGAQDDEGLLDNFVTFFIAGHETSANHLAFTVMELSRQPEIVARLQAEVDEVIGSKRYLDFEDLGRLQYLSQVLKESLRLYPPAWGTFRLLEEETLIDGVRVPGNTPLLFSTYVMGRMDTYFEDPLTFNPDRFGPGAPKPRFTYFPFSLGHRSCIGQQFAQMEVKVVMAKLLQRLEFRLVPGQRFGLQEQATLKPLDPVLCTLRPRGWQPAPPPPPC
Sequence of CYP3A4 (P08684 whole entry): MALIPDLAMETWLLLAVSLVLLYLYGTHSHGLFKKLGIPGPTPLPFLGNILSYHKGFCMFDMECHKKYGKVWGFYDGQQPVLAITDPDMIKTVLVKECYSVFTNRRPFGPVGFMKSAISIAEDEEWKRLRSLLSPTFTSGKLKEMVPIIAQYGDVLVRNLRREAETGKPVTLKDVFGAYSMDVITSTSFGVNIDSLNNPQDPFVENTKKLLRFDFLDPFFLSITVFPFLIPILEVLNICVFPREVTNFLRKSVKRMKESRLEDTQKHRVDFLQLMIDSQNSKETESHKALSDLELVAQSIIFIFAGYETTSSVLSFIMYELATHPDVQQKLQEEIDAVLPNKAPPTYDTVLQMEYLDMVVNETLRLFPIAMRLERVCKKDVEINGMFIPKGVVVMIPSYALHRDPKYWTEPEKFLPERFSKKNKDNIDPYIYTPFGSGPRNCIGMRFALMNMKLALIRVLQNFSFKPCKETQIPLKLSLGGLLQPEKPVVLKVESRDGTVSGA
Sequence of CYP2D6 (P10635 whole entry): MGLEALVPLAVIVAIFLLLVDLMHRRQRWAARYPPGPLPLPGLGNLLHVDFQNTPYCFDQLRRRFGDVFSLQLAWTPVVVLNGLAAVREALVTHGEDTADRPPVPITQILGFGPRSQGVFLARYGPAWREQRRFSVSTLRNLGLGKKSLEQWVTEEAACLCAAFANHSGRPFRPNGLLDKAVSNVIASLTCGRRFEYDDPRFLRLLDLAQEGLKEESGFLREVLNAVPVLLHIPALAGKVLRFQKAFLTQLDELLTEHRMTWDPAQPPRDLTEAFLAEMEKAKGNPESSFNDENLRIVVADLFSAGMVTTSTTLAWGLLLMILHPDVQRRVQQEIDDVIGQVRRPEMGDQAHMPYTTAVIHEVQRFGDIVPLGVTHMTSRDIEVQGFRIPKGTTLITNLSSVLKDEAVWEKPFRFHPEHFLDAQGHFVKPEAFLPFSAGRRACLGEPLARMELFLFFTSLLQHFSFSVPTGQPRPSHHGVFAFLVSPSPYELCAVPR
Sequence of CYP2C9 (P11712 whole entry): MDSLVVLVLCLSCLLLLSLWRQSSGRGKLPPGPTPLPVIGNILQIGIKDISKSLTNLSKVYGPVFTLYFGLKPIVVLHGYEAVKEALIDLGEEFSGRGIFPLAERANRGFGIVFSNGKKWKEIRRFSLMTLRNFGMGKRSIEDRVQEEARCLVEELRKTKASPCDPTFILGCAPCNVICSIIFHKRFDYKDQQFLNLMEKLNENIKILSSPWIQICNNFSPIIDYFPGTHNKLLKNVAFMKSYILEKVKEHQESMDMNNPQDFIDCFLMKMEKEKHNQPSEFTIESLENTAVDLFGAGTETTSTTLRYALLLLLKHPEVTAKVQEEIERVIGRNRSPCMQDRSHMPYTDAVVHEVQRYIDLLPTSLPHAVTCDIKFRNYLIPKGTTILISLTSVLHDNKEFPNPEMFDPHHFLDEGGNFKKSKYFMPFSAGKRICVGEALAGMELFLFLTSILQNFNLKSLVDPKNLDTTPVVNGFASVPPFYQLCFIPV

O=C(NC1CC1)N1CCC(c2cnccc2-c2ccccc2)CC1
IC50 [1]: 950 nM

O=C(NC1CC1)N1CCN(c2cnccc2-c2ccccc2)CC1
IC50 [1]: 52 nM

CN(C)C(=O)C1CCN(c2cnccc2-c2ccccn2)CC1
IC50 [1]: 68 nM
logD [2]: 1.2
inhibition at 1 h, 10 µM (CYP3A4): 11%

CCN(C)C(=O)C1CCN(c2cncnc2-c2ccccc2)CC1
IC50 [1]: 14 nM
logD [2]: 2.1
inhibition at 1 h, 10 µM (CYP3A4): 35%

CCNC(=O)C1CCN(c2cncnc2-c2ccccc2)CC1
IC50 [1]: 58 nM
logD [2]: 1.8
inhibition at 1 h, 10 µM (CYP3A4): 42%

O=C(NC1CC1)c1ccc(-c2cnccc2-c2ccccc2)cc1
IC50 [1]: 74 nM

CN(C)C(=O)C1CCN(c2cnccc2-n2cc(Cl)cn2)CC1
IC50 [1]: 24 nM
inhibition at 1 h, 10 µM (CYP3A4): 19%

CN(C)C(=O)C1CCN(c2cncnc2-c2ccc(F)cc2)CC1
IC50 [1]: 7.3 nM
logD [2]: 1.9
inhibition at 1 h, 10 µM (CYP3A4): 37%

CN(C)C(=O)C1CCN(c2cnccc2-n2cc(C(F)(F)F)cn2)CC1
IC50 [1]: 65 nM
logD [2]: 2.1
inhibition at 1 h, 10 µM (CYP3A4): 47%

Cc1ccn(-c2ccncc2N2CCC(C(=O)N(C)C)CC2)n1
IC50 [1]: 1100 nM
logD [2]: 1.5
inhibition at 1 h, 10 µM (CYP3A4): 5%

CN(C)C(=O)C1CCN(c2cnccc2-n2cc(C3CC3)cn2)CC1
IC50 [1]: 12 nM
logD [2]: 2.1
inhibition at 1 h, 10 µM (CYP3A4): 56%

CN(C)C(=O)C1CCN(c2cnccc2-n2cccn2)CC1
IC50 [1]: 48 nM
logD [2]: 1.1
inhibition at 1 h, 10 µM (CYP3A4): 1%

CN(C)C(=O)C1CCN(c2cnccc2-n2cc(Br)cn2)CC1
IC50 [1]: 9.5 nM
logD [2]: 2.1
inhibition at 1 h, 10 µM (CYP3A4): 31%

S=C(NC1CCCCC1)N1CCC(c2cnc[nH]2)CC1 [THIOPERAMIDE]
IC50 [1]: 430 nM

CN(C)C(=O)C1CCN(c2cncnc2-c2ccccc2)CC1
IC50 [1]: 16 nM
logD [2]: 1.7
inhibition at 1 h, 10 µM (CYP3A4): 28%

Cc1cnc(-c2ccncc2N2CCC(C(=O)N(C)C)CC2)s1
IC50 [1]: 12 nM
logD [2]: 2
inhibition at 1 h, 10 µM (CYP3A4): 32%

O=C(NC1CC1)C1CCN(c2cnccc2-c2ccccc2)CC1
IC50 [1]: 8.1 nM
logD [2]: 2.5
inhibition at 1 h, 10 µM (CYP3A4): 83%

O=C(Nc1ccccc1)C1CCN(c2cncnc2-c2ccccc2)CC1
IC50 [1]: 28 nM
logD [2]: 2.7
inhibition at 1 h, 10 µM (CYP3A4): 84%

CNC(=O)C1CCN(c2cncnc2-c2ccccc2)CC1
IC50 [1]: 72 nM
logD [2]: 1.4
inhibition at 1 h, 10 µM (CYP3A4): 31%

O=C(NC1CC1)C1CCN(c2cncnc2-c2ccccc2)CC1
IC50 [1]: 44 nM
logD [2]: 1.8
inhibition at 1 h, 10 µM (CYP3A4): 50%

Cc1cnn(-c2ccncc2N2CCC(C(=O)N(C)C)CC2)c1
IC50 [1]: 8.5 nM
logD [2]: 1.6
concentration at 1 h [3]: 0.102 µM
inhibition at 1 h, 10 µM (CYP2C9): 19%
concentration at 1 h [4]: 179 µM
inhibition in vivo at 30 mg/kg (Brain): 26%
inhibition at 1 h, 10 µM (CYP2D6): 3%
inhibition at 1 h, 10 µM (CYP3A4): 21%
inhibition at 1 h, 10 µM (CYP2C8): 2%

O=C(NC1CC1)C1CCN(c2cnccc2-c2ccccn2)CC1
IC50 [1]: 160 nM
logD [2]: 1.3
inhibition at 1 h, 10 µM (CYP3A4): 29%
